Converted amounts (≈) assume the structure as drawn.
Legend:
Assay type in all cases: functional
[1] = tested on: Mycobacterium tuberculosis; assay: Antimycobacterial activity against Mycobacterium tuberculosis H37Rv ATCC 27294 after 28 days by agar dilution method; conditions: H37Rv ATCC 27294, 672 h
[2] = tested on: Mycobacterium tuberculosis; assay: Antimycobacterial activity against Mycobacterium tuberculosis H37Rv
[3] = tested on: Mycolicibacterium smegmatis; assay: Antimycobacterial activity against Mycobacterium smegmatis
[4] = tested on: Mycobacterium avium; assay: Antimycobacterial activity against Mycobacterium avium

## O=c1c2ccccc2[nH]c2c(-c3c(-c4ccccc4)[nH]c4ccccc34)c3ccccc3n12
[1]
  MIC: 8.58 µM (≈ 3.65 µg/mL)

## O=c1c2ccccc2[nH]c2c(-c3c(-c4ccccc4O)[nH]c4ccccc34)c3ccccc3n12
[1]
  MIC: 29.4 µM (≈ 13 µg/mL)

## N#Cc1ccc(-c2[nH]c3ccccc3c2-c2c3ccccc3n3c(=O)c4ccccc4[nH]c23)cc1
[1]
  MIC: 7.06 µM (≈ 3.18 µg/mL)

## O=c1c2ccccc2[nH]c2c(-c3c(-c4ccc(F)cc4)[nH]c4ccccc34)c3ccccc3n12
[1]
  MIC: 27.7 µM (≈ 12.3 µg/mL)

## O=c1c2ccccc2[nH]c2c(-c3c(-c4ccc(Br)cc4)[nH]c4ccccc34)c3ccccc3n12
[1]
  MIC: 56.4 µM (≈ 28.5 µg/mL)

## Nc1ccccc1-c1[nH]c2ccccc2c1-c1c2ccccc2n2c(=O)c3ccccc3[nH]c12
[1]
  MIC: 6.18 µM (≈ 2.72 µg/mL)

## O=c1c2ccccc2[nH]c2c(-c3c(-c4cccs4)[nH]c4ccccc34)c3ccccc3n12
[1]
  MIC: 7.3 µM (≈ 3.15 µg/mL)

## CCc1ccc(-c2[nH]c3ccccc3c2-c2c3ccccc3n3c(=O)c4ccccc4[nH]c23)cc1
[1]
  MIC: 12.3 µM (≈ 5.59 µg/mL)

## Nc1ccc(-c2[nH]c3ccccc3c2-c2c3ccccc3n3c(=O)c4ccccc4[nH]c23)cc1
[1]
  MIC: 14.2 µM (≈ 6.24 µg/mL)

## O=C(CC1(O)c2ccccc2-c2nc3ccccc3nc21)c1ccc(Br)cc1 (racemic)
[1]
  MIC: 14.4 µM (≈ 6.22 µg/mL)

## Nc1ccccc1C(=O)CC1(O)c2ccccc2-c2nc3ccccc3nc21 (racemic)
[1]
  MIC: 17 µM (≈ 6.25 µg/mL)

## Nc1ccc(C(=O)CC2(O)c3ccccc3-c3nc4ccccc4nc32)cc1 (racemic)
[1]
  MIC: 8.45 µM (≈ 3.1 µg/mL)

## Brc1ccc(C2=NN(c3ccccc3)C3(C2)c2ccccc2-c2nc4ccccc4nc23)cc1 (racemic)
[1]
  MIC: 12.4 µM (≈ 6.25 µg/mL)

## Nc1ccccc1C1=NN(c2ccccc2)C2(C1)c1ccccc1-c1nc3ccccc3nc12 (racemic)
[1]
  MIC: 56.9 µM (≈ 25 µg/mL)

## Nc1ccc(C2=NN(c3ccccc3)C3(C2)c2ccccc2-c2nc4ccccc4nc23)cc1 (racemic)
[1]
  MIC: 7.17 µM (≈ 3.15 µg/mL)

## O=C(CC1(O)c2ccccc2-n2c1nc1ccccc1c2=O)c1ccccc1O (racemic)
[1]
  MIC: 16.2 µM (≈ 6.24 µg/mL)

## N#Cc1ccc(C(=O)CC2(O)c3ccccc3-n3c2nc2ccccc2c3=O)cc1 (racemic)
[1]
  MIC: 15.9 µM (≈ 6.26 µg/mL)

## O=C(CC1(O)c2ccccc2-n2c1nc1ccccc1c2=O)c1ccc(F)cc1 (racemic)
[1]
  MIC: 8.85 µM (≈ 3.42 µg/mL)

## O=C(CC1(O)c2ccccc2-n2c1nc1ccccc1c2=O)c1ccc(Br)cc1 (racemic)
[1]
  MIC: 112 µM (≈ 50 µg/mL)

## Nc1ccccc1C(=O)CC1(O)c2ccccc2-n2c1nc1ccccc1c2=O (racemic)
[1]
  MIC: 3.99 µM (≈ 1.53 µg/mL)

## O=C(CC1(O)c2ccccc2-n2c1nc1ccccc1c2=O)c1cccs1 (racemic)
[1]
  MIC: 16.7 µM (≈ 6.25 µg/mL)

## CCc1ccc(C(=O)CC2(O)c3ccccc3-n3c2nc2ccccc2c3=O)cc1 (racemic)
[1]
  MIC: 7.88 µM (≈ 3.12 µg/mL)

## Nc1ccc(C(=O)CC2(O)c3ccccc3-n3c2nc2ccccc2c3=O)cc1 (racemic)
[1]
  MIC: 16.3 µM (≈ 6.26 µg/mL)

## O=C(CC1(O)c2cccc(Br)c2-n2c1nc1ccccc1c2=O)c1ccc(Br)cc1 (racemic)
[1]
  MIC: 11.9 µM (≈ 6.24 µg/mL)

## O=C(CC1(O)c2ccccc2-n2c1nc1ccccc1c2=O)c1ccccc1NC(=S)Nc1ccc([N+](=O)[O-])cc1 (racemic)
[1]
  MIC: 5.98 µM (≈ 3.37 µg/mL)

## O=C(CC1(O)c2ccccc2-n2c1nc1ccccc1c2=O)c1ccccc1 (racemic)
[1]
  MIC: 16.9 µM (≈ 6.23 µg/mL)

## O=C(O)c1cn(C2CC2)c2cc(N3CCNCC3)c(F)cc2c1=O [CIPROFLOXACIN]
[1]
  MIC: 12.6 µM (≈ 4.17 µg/mL)

## CC[C@@H](CO)NCCN[C@@H](CC)CO [ETHAMBUTOL]
[1]
  MIC: 15.3 µM (≈ 3.13 µg/mL)

## O=C1c2ccccc2-n2c1nc1ccccc1c2=O [TRYPTANTHRIN]
[2]
  MIC: 1 µg/mL (≈ 4.03 µM)
[3]
  MIC: 6 µg/mL (≈ 24.2 µM)
[4]
  MIC: 4 µg/mL (≈ 16.1 µM)

Reference: ChEMBL document CHEMBL3608226, “Synthesis and biological evaluation of phaitanthrin congeners as anti-mycobacterial agents” (2015)
